What follows are compounds tested against T1, PI3Kγ (p101/p110γ protein) (Homo sapiens, UniProt P48736) (assay: PI3Kγ In Vitro Kinase Assay). Settings: purified recombinant p101/p110γ with G protein β1/γ2 subunits; 20 μM ATP, 25 μM PIP2; 20 minutes at room temperature.
T1 construct: HA; made in house; host or cells: Spodoptera frugiperda (Sf9) cells, baculovirus co-infection
Format: biochemical
Procedure, shortened: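 Sf9-expressed, purified human p101/p110γ (2.7 nM) was activated by Gβ1/γ2 (57.7 nM) and reacted with 20 μM ATP plus [γ-32P]ATP on PIP2 (25 μM)/PE (300 μM) micelles with 10 mM MgCl2 in HEPES buffer. Reactions ran 20 min at room temperature. Filter-captured radiolabeled PIP3 was counted by scintillation.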

T1 sequence (P48736 whole entry, species assumed): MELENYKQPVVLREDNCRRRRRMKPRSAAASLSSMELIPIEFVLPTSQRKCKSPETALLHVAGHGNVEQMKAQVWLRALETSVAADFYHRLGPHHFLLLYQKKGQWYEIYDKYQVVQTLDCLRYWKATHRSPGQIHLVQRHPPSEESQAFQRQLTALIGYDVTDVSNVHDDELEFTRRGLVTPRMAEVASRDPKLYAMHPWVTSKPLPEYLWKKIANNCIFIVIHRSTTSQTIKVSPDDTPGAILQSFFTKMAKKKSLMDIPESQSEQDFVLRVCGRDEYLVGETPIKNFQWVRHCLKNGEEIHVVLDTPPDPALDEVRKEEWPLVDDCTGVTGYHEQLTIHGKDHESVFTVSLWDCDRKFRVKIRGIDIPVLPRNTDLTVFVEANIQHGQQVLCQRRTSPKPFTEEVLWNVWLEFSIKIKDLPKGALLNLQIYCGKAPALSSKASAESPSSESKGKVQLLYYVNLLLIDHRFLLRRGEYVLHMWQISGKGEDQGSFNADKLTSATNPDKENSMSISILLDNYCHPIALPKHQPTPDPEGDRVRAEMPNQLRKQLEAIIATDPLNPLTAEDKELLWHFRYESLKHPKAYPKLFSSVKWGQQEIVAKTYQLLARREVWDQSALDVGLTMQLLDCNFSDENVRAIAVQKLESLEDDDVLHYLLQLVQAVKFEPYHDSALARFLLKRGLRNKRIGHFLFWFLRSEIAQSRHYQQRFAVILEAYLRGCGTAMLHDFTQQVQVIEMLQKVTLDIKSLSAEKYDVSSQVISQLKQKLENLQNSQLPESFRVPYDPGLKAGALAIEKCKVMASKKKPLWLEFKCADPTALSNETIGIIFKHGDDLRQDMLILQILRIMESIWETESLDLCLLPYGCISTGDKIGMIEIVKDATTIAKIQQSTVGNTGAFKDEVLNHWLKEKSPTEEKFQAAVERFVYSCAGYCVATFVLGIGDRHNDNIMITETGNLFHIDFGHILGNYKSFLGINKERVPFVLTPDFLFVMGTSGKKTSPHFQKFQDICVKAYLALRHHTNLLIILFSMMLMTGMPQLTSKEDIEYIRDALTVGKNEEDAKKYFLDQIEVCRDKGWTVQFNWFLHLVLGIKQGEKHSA
T1 sequence (Q8WYR1 whole entry partner, species assumed): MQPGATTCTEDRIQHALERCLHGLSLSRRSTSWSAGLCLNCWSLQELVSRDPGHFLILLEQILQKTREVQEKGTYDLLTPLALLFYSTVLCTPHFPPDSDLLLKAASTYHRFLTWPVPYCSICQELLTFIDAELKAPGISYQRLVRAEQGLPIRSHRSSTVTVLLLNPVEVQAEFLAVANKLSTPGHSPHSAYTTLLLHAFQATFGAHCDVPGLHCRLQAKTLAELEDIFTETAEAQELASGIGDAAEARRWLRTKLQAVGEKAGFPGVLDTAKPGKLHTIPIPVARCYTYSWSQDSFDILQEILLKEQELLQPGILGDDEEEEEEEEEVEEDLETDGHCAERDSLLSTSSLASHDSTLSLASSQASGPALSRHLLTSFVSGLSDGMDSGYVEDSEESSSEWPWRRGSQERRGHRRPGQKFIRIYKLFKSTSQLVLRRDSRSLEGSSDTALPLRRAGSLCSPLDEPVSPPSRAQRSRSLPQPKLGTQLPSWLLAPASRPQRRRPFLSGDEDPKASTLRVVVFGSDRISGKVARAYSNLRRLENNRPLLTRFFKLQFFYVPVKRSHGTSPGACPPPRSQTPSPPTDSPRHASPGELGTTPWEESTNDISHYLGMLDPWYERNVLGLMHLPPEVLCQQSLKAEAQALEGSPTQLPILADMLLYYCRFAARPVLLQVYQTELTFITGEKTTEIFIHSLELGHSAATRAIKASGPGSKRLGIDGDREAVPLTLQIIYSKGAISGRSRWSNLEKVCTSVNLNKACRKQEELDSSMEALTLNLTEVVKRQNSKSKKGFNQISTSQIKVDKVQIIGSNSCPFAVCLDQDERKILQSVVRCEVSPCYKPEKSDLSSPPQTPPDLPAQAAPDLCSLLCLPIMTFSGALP

For `CC(C)N(CCCN1C(=O)COc2c(F)cc(C=C3SC(=S)NC3=O)cc21)C(C)C` [Example 245, 4-(3-Diisopropylamino-propyl)-8-fluoro-6-(4-oxo-2-thioxo-thiazolidin-5-ylidenemethyl)-4H-benzo[1,4]oxazin-3-one], which IC50 is on record?
Its IC50 is 185 nM.

How did the IC50 turn out when `COc1cc(C=C2SC(=S)NC2=O)cc2c1OCC(=O)N2Cc1cc(C(C)(C)C)cc(C(C)(C)C)c1` [Example 51, 4-(3,5-Di-tert-butyl-benzyl)-8-methoxy-6-(4-oxo-2-thioxo-thiazolidin-5-ylidenemethyl)-4H-1,4-benzoxazin-3-one] was run?
Its IC50 is 165 nM.

With `COc1ccc(CN2C(=O)COc3c(F)cc(C=C4SC(=S)NC4=O)cc32)cc1C(F)(F)F` [Example 299, 8-Fluoro-4-(4-methoxy-3-trifluoromethyl-benzyl)-6-(4-oxo-2-thioxo-thiazolidin-5-ylidenemethyl)-4H-benzo[1,4]oxazin-3-one] as the compound, how does the IC50 read?
The IC50 was 6 nM.

Which IC50 does the source give for `CC(C)n1cnc2ccc(CN3C(=O)COc4ccc(C=C5SC(=S)NC5=O)cc43)cc21` [Example 336, 4-(3-Isopropyl-3H-benzimidazol-5-ylmethyl)-6-(4-oxo-2-thioxo-thiazolidin-5-ylidenemethyl)-4H-1,4-benzoxazin-3-one] here?
The IC50 was 9 nM.

Which IC50 does the source give for `O=C1NC(=S)SC1=Cc1ccc2c(c1)N(CC(=O)c1ccc3c(c1)oc1ccccc13)C(=O)CO2` [Example 186, 4-(2-Dibenzofuran-3-yl-2-oxo-ethyl)-6-(4-oxo-2-thioxo-thiazolidin-5-ylidenemethyl)-4H-1,4-benzoxazin-3-one] here?
Its IC50 is 315 nM.

With `O=C1NC(=S)SC1=Cc1cnc2c(c1)N(Cc1ccccc1)C(=O)CO2` [Example 189, 1-Benzyl-7-(4-oxo-2-thioxo-thiazolidin-5-ylidenemethyl)-1H-pyrido[2,3-b][1,4]oxazin-2-one; compound with ethane-1,2-diamine] as the compound, how does the IC50 read?
The IC50 was 640 nM.

For `Cc1cc(C=C2SC(=S)NC2=O)cc2c1OCC(=O)N2Cc1cc(C(C)(C)C)cc(C(C)(C)C)c1` [Example 61, 4-(3,5-Di-tert-butyl-benzyl)-8-methyl-6-(4-oxo-2-thioxo-thiazolidin-5-ylidenemethyl)-4H-1,4-benzoxazin-3-one], which IC50 is on record?
Its IC50 is 70 nM.

With `CC(C)(C)c1cc(CN2C(=O)COc3ccc(C=C4SC(=S)NC4=O)cc32)cc(C(N)=O)c1` [Example 216, 3-tert-Butyl-5-[3-oxo-6-(4-oxo-2-thioxo-thiazolidin-5-ylidenemethyl)-2,3-dihydro-1,4-benzoxazin-4-ylmethyl]-benzamide] as the compound, how does the IC50 read?
The IC50 was 26 nM.

For “4-Ethyl-6-(4-oxo-2-thioxo-thiazolidin-5-ylidenemethyl)-4H-benzo[1,4]oxazin-3-one [Example 139]”, which IC50 is on record?
Its IC50 is 42 nM.

`O=C1COc2c(F)cc(C=C3SC(=S)NC3=O)cc2N1` [Example 53, 8-Fluoro-6-(4-oxo-2-thioxo-thiazolidin-5-ylidenemethyl)-4H-1,4-benzoxazin-3-one] was tested. Which IC50 did it give?
The IC50 was 43 nM.

Which IC50 does the source give for `Cc1cc(CN2C(=O)COc3ccc(C=C4SC(=S)NC4=O)cc32)nn1C` [Example 329, 4-(1,5-Dimethyl-1H-pyrazol-3-ylmethyl)-6-(4-oxo-2-thioxo-thiazolidin-5-ylidenemethyl)-4H-1,4-benzoxazin-3-one] here?
The IC50 was 28 nM.

For `O=C1NC(=S)SC1=Cc1ccc2c(c1)N(Cc1cccc(SC(F)(F)F)c1)C(=O)CO2` [Example 165, 6-(4-Oxo-2-thioxo-thiazolidin-5-ylidenemethyl)-4-(3-trifluoromethylsulfanyl-benzyl)-4H-1,4-benzoxazin-3-one], which IC50 is on record?
Its IC50 is 15 nM.

How did the IC50 turn out when `Cc1cc(CN2CCOCC2)cc(CN2C(=O)COc3ccc(C=C4SC(=S)NC4=O)cc32)c1` [Example 42, 4-(3-Methyl-5-morpholin-4-ylmethyl-benzyl)-6-(4-oxo-2-thioxo-thiazolidin-5-ylidenemethyl)-4H-1,4-benzoxazin-3-one] was run?
The IC50 was 41 nM.

Which IC50 does the source give for `O=C1NC(=S)S/C1=C\c1cc(F)c2c(c1)N(Cc1cc(C(F)(F)F)cc(C(F)(F)F)c1)C(=O)CO2` [Example 273, 4-(3,5-Bis-trifluoromethyl-benzyl)-8-fluoro-6-[4-oxo-2-thioxo-thiazolidin-(5Z)-ylidenemethyl]-4H-benzo[1,4]oxazin-3-one] here?
The IC50 was 121 nM.

How did the IC50 turn out when `O=C1NC(=S)SC1=Cc1ccc2c(c1)N(Cc1ccc(-c3ccccc3)cc1)C(=O)CO2` [Example 9, 4-Biphenyl-4-ylmethyl-6-(4-oxo-2-thioxo-thiazolidin-5-ylidenemethyl)-4H-1,4-benzoxazin-3-one] was run?
Its IC50 is 61 nM.

How did the IC50 turn out when `COc1ccc(CCCN2C(=O)COc3ccc(C=C4SC(=S)NC4=O)cc32)cc1` [Example 122, 4-[3-(4-Methoxy-phenyl)-propyl]-6-(4-oxo-2-thioxo-thiazolidin-5-ylidenemethyl)-4H-benzo[1,4]oxazin-3-one] was run?
The IC50 was 5 nM.

For `C[C@@H]1CCC[C@H](C)N1Cc1ccc(CN2C(=O)COc3ccc(C=C4SC(=S)NC4=O)cc32)cc1` [Example 27, 4-[4-((2S, 6R)-2,6-Dimethyl-piperidin-1-ylmethyl)-benzyl]-6-(4-oxo-2-thioxo-thiazolidin-5-ylidenemethyl)-4H-1,4-benzoxazin-3-one], which IC50 is on record?
Its IC50 is 3 nM.

`Cc1cc(C=C2SC(=S)NC2=O)c(C)c2c1OCC(=O)N2` [Example 16, 5,8-Dimethyl-6-(4-oxo-2-thioxo-thiazolidin-5-ylidenemethyl)-4H-benzo[1,4]oxazin-3-one] was tested. Which IC50 did it give?
The IC50 was 328 nM.

For `O=C1NC(=S)SC1=Cc1cc(F)c2c(c1)N(Cc1ccc3nccnc3c1)C(=O)CO2` [Example 315, 8-Fluoro-6-(4-Oxo-2-thioxo-thiazolidin-5-ylidenemethyl)-4-quinoxalin-6-ylmethyl-4H-benzo[1,4]oxazin-3-one; Compound with Ethane-1,2-diamine], which IC50 is on record?
The IC50 was 44 nM.

Which IC50 does the source give for `NC(=O)c1ccc(CN2C(=O)COc3ccc(C=C4SC(=S)NC4=O)cc32)cc1` [Example 176, 4-[3-Oxo-6-(4-oxo-2-thioxo-thiazolidin-5-ylidenemethyl)-2,3-dihydro-1,4-benzoxazin-4-ylmethyl]-benzamide] here?
Its IC50 is 59 nM.

Which IC50 does the source give for `CCc1cc(CN2C(=O)COc3ccc(C=C4SC(=S)NC4=O)cc32)cc(C(C)(C)C)c1` [Example 63, 4-(3-tert-Butyl-5-ethyl-benzyl)-6-(4-oxo-2-thioxo-thiazolidin-5-ylidenemethyl)-4H-1,4-benzoxazin-3-one] here?
Its IC50 is 49 nM.

How did the IC50 turn out when `Cc1cc(C=C2SC(=O)NC2=O)cc2c1OCC(=O)N2Cc1cc(C(C)(C)C)nc(C(C)(C)C)c1` [Example 224, 5-[4-(2,6-Di-tert-butyl-pyridin-4-ylmethyl)-8-methyl-3-oxo-3,4-dihydro-2H-1,4-benzoxazin-6-ylmethylene]-thiazolidine-2,4-dione] was run?
Its IC50 is 255 nM.

For `CC(=O)Oc1c(C)cc(CN2C(=O)COc3ccc(C=C4SC(=S)NC4=O)cc32)cc1C` [Example 126, Acetic acid 2,6-dimethyl-4-{3-[3-oxo-6-(4-oxo-2-thioxo-thiazolidin-5-ylidenemethyl)-2,3-dihydro-benzo[1,4]oxazin-4-yl]-methyl}-phenyl ester], which IC50 is on record?
The IC50 was 10 nM.

`CC(=O)OCc1cc(CN2C(=O)COc3c(F)cc(/C=C4\SC(=S)NC4=O)cc32)cc(C(C)(C)C)c1` [Example 285, Acetic acid 3-tert-butyl-5-{8-fluoro-3-oxo-6-[4-oxo-2-thioxo-thiazolidin-(5Z)-ylidenemethyl]-2,3-dihydro-benzo[1,4]oxazin-4-ylmethyl}-benzyl ester] was tested. Which IC50 did it give?
The IC50 was 21 nM.

How did the IC50 turn out when `Cc1cc(CN2C(=O)COc3ccc(C=C4SC(=S)NC4=O)cc32)n(C)n1` [Example 339, 4-(2,5-Dimethyl-2H-pyrazol-3-ylmethyl)-6-(4-oxo-2-thioxo-thiazolidin-5-ylidenemethyl)-4H-1,4-benzoxazin-3-one] was run?
Its IC50 is 80 nM.

Which IC50 does the source give for `O=C1NC(=S)SC1=Cc1cc(F)c2c(c1)N(Cc1ccc3ncccc3c1)C(=O)CO2` [Example 328, 8-Fluoro-6-(4-oxo-2-thioxo-thiazolidin-5-ylidenemethyl)-4-quinolin-6-ylmethyl-4H-1,4-benzoxazin-3-one] here?
The IC50 was 6 nM.

For `CC(C)(C)c1cc(CN2C(=O)COc3ccc(C=C4OC(=S)NC4=O)cc32)cc(C(C)(C)C)c1` [Example 247, 4-(3,5-Di-tert-butyl-benzyl)-6-(4-oxo-2-thioxo-oxazolidin-5-ylidenemethyl)-4H-1,4-benzoxazin-3-one], which IC50 is on record?
Its IC50 is 10 nM.

For `O=C1NC(=S)SC1=Cc1ccc2c(c1)N(Cc1ccccc1)C(=O)CO2` [Example 180, 4-Benzyl-6-(4-oxo-2-thioxo-thiazolidin-5-ylidenemethyl)-4H-1,4-benzoxazin-3-one], which IC50 is on record?
Its IC50 is 9 nM.

With `CC(C)(O)c1ccc(CN2C(=O)COc3c(F)cc(C=C4SC(=S)NC4=O)cc32)cc1` [Example 294, 8-Fluoro-4-[4-(1-hydroxy-1-methyl-ethyl)-benzyl]-6-(4-oxo-2-thioxo-thiazolidin-5-ylidenemethyl)-4H-benzo[1,4]oxazin-3-one] as the compound, how does the IC50 read?
Its IC50 is 3 nM.

How did the IC50 turn out when `O=C1NC(=S)SC1=Cc1ccc2c(c1)N(Cc1ccc(Cl)c(Cl)c1)C(=O)CO2` [Example 178, 4-(3,4-Dichloro-benzyl)-6-(4-oxo-2-thioxo-thiazolidin-5-ylidenemethyl)-4H-1,4-benzoxazin-3-one] was run?
Its IC50 is 4 nM.

`O=C1COc2ccc(C=C3OC(=O)NC3=O)cc2N1` [Example 203, 5-(3-Oxo-3,4-dihydro-2H-1,4-benzoxazin-6-ylmethylene)-oxazolidine-2,4-dione] was tested. Which IC50 did it give?
The IC50 was 175 nM.

Which IC50 does the source give for `C=Cc1cc(CN2C(=O)COc3ccc(C=C4SC(=S)NC4=O)cc32)cc(C(C)(C)C)c1` [Example 56, 4-(3-tert-Butyl-5-vinyl-benzyl)-6-(4-oxo-2-thioxo-thiazolidin-5-ylidenemethyl)-4H-1,4-benzoxazin-3-one] here?
The IC50 was 18 nM.

How did the IC50 turn out when `Cc1cc(C=C2SC(=S)NC2=O)cc2c1OCC(=O)N2` [Example 154, 8-Methyl-6-(4-oxo-2-thioxo-thiazolidin-5-ylidenemethlyl)-4H-benzo[1,4]oxazin-3-one] was run?
Its IC50 is 160 nM.

How did the IC50 turn out when `O=C1NC(=S)SC1=Cc1ccc2c(c1)N(Cc1ccc([N+](=O)[O-])cc1)C(=O)CO2` [Example 183, 4-(4-Nitro-benzyl)-6-(4-oxo-2-thioxo-thiazolidin-5-ylidenemethyl)-4H-1,4-benzoxazin-3-one] was run?
The IC50 was 21 nM.
